Measured values taken from US20030114402A1, “Modulators of DNA cytosine-5 methyltransferase and methods for use thereof” (The Regents of the University of California, priority 1997, published 2003).
Entries after “also recorded” stand apart in the source; their conditions may differ. [5mC] = 5-methylcytosine

Assays:
DCMTase [1] = target: T1, DCMTase (Mus musculus, UniProt P13864); settings: previous kinetic study (Flynn et al., 1996); cited from earlier work
T1 construct: DCMTase was purified from mouse erythroleukemia cells as previously described; endogenous in cells; host or cells: mouse erythroleukemia (MEL) cells; enzyme purified from them

DCMTase [2] = target: T1, DCMTase; test: Dead-end inhibition of poly(dI.dC:dI.dC) methylation by single-stranded DNA; format: biochemical
Experimental: (§1) After preincubation at room temperature for up to 10 minutes, reactions were initiated by the addition of poly(dI.dC:dI.dC) and, if indicated, inhibitor DNA or reaction products. […] Single-stranded DNA was heated to 90° C. and quick cooled on ice, prior to initiation of the reaction. Freeze-thawed DNA produced equivalent results. Incubations were at 37° C. for 60 minutes. The poly(dI.dC:dI.dC) concentrations were 2.0, 4.0, 8.0, 16, 35, 80, 160, 250, 400, 700 and 1000 pM. In some experiments, GC-box a/b was the substrate, using 100 nM DCMTase and DNA concentrations of 0.20, 0.40, 1.0, 2.0, 4.0, 8.0, 15, 23 and 35 μM. The reaction was stopped after 60 minutes by transferring 20 μL of the reaction onto a DE 81 filter paper that was processed as described (Flynn et al., 1996). The radioactivity above the background, determined from assays without added poly(dI.dC:dI.dC), was converted to initial velocities and expressed as picomoles of methyl groups transferred to poly(dI.dC:dI.dC) per hour and plotted in double reciprocal form.
The poly(dI.dC:dI.dC) concentrations were 10, 13, 20, 40 and 100 pM. The GC-box b concentrations were: diamonds, 0; circles, 0.75 μM; triangles, 1.5 μM; squares, 5.0 μM. Incubations were at 37° C. for 60 minutes.
The poly(dI.dC:dI.dC) concentrations were 1.5, 3.0, 7.5, 15 and 20 pM. The GC-box b^MET concentrations were: squares, 0; circles, 10 nM; diamonds. 20 nM; triangles, 40 nM. Incubations were at 37° C. for 60 minutes.
The GC-box b^MET concentrations were: squares, 0; circles, 20 nM; diamonds, 40 nM; triangles, 80 nM. Incubations were at 37° C. for 60 minutes.
(§2) The Michaelis-Menton equation was used for studies into DNA length contributions to catalysis using KaliedaGraph 2.1.2 (Synergy Software). For mechanistic determinations, the nomenclature used is that of Cleland, W. W., 1963a. Biochimi. Biophysi. Acta 67:104-137. All steady-state data were analyzed using regression analyses of the appropriate initial velocity equation, listed below, using the Cleland programs (Cleland, W. W., 1979, Statistical analysis of enzyme kinetic data. Methods in Enzymol. 63:103-138).
(§3) The algorithms perform a non-linear least squares fit to the entire data set. Mechanistic determinations were made by comparison of the sigma values associated with the fit to each equation. The standard errors associated with fitted parameters and graphical analysis of the experimental data scattered around the calculated best fit lines were also considered in making an assignment.

[3] = test system: mouse erythroleukemia (MEL) cells; test: Anti-proliferative effects on MEL cells; format: cell-based; settings: for growth rate of MEL cells: incubation with inhibitor, concentration dependent
DCMTase [4] = target: T1, DCMTase; test: Product inhibition studies, steady-state; format: biochemical; parameters: key to Type of Inhibition: C: competitive; NC: noncompetitive; UC: uncompetitive inhibition
Experimental: as §1
The AdoHcy concentrations were: squares, 0; diamonds, 0.75 ,μM; circles, 1.5 μM; triangles, 3.0 μM; notched squares, 6.0 μM. Incubations were at 37° C. for 60 minutes.
For the double reciprocal plot of AdoHcy product inhibition with varying poly(dI.dC:dI.dC) concentrations (FIGS. 17A-C), reactions contained 20 nM DCMTase in 100 mM Tris pH 8.0, 10 mM EDTA, 10 mM DTT, 200 μg/mL BSA. Incubations were at 37° C. for 60 minutes. The poly(dI.dC:dI.dC) concentrations were 2.5, 5.0, 10, and 20 pM. The AdoHcy concentrations were: squares, 0; diamonds, 15 μM; circles, 30 μM.
The poly(dId^mC:dId^mC) concentrations were: squares, 0; diamonds, 5.0 pM; circles, 10 pM; triangles, 20 pM. Incubations were at 37° C. for 60 minutes. Experimental data are shown scattered around lines derived from a fit to equation 5 for noncompetitive inhibition.
200 μg/mL BSA. Incubations were at 37° C. for 60 minutes. The poly(dI.dC:dI.dC) concentrations were 20, 40, 80, 120 and 160 pM. The poly(dId^mC:dId^mC) concentrations were: squares, 0; triangles, 34 pM; circles, 45 pM; diamonds, 68, notched squares, 90 pM. Experimental data are shown scattered around lines. In FIG. 19A, lines are derived from a fit to equation 4 for competitive inhibition. In FIG. 19B, lines are derived from a fit to equation 5 for noncompetitive inhibition. Both fittings are not acceptable.
as §2, §3

[5] = target: DNA cytosine-5 methyltransferase (DCMTase, Dnmt1) (Mus musculus) (UniProt P13864); test: EMSA; settings: pooled generation-5 sequences vs starting pool
[6] = target: DNA cytosine-5 methyltransferase (DCMTase, Dnmt1) (Mus musculus) (UniProt P13864); test: inhibition
[7] = target: T2, DNA cytosine-5 methyltransferase (DCMTase, Dnmt1) (Mus musculus, UniProt P13864 P13864:1-1620); test: EMSA; unit printed as mM (text indicates micromolar); 100 nM enzyme, DNA varied; Hepes pH 7.4, 10 mM EDTA, on ice, no AdoMet; settings: tags: none; purified from mouse erythroleukemia (MEL) cells; label: 32P
Experimental: (§4) Gel mobility shift assays (GMSA) were performed with minor revisions to the original procedures (Fried, M., & Crothers, D. M., 1981, Equilibria and kinetics of the lac repressor-operator interactions by polyacrylamide gel electrophoresis, Nucleic Acids Res. 9:6505-6525; Garner, M. M. & Revzin, A., 1981, A gel electrophoresis method for quantifying the binding proteins to specific DNA regions: applications to components of the Escherichia coli lactose operon regulatory system, Nucleic Acids Res. 13:3047-3060). […]
(§5) Steady-state kinetic analyses of the DCMTase with the same 30 base-pair DNA substrates used in these studies indicate that Kₘ^DNA is 1000- to 50,000-fold higher (Flynn, J., et al., 1996, Murine DNA cytosine-C5 methyltransferase: Pre-steady- and steady-state kinetic analyses with regulatory DNA sequences, Biochemistry 35:7308-7315) than the DNA concentrations used to generate FIG. 2 and used by Reale et al, 1995, supra. […] Therefore, the stability of protein:DNA was determined by keeping the enzyme at a constant concentration (100 nM) and varying the amount of added DNA (Dubey & Roberts, 1992, supra).

[8] = target: T2, DNA cytosine-5 methyltransferase …; test: EMSA; unit printed as mM (text indicates micromolar); settings: tags: none, purified from mouse erythroleukemia (MEL) cells
Experimental: Gel mobility shift assays (GMSA) were performed with minor revisions to the original procedures (Fried, M., & Crothers, D. M., 1981, Equilibria and kinetics of the lac repressor-operator interactions by polyacrylamide gel electrophoresis, Nucleic Acids Res. 9:6505-6525; Garner, M. M. & Revzin, A., 1981, A gel electrophoresis method for quantifying the binding proteins to specific DNA regions: applications to components of the Escherichia coli lactose operon regulatory system, Nucleic Acids Res. 13:3047-3060). All reactions were done in 100 mM Hepes pH 7.4, 10 mM EDTA, 10 mM DTT, […], 5% glycerol using the indicated P-labeled DNA and DCMTase concentrations, incubated on ice for 5 minutes and loaded on a 1×TBE(89 mM Tris-HCl pH 8.3, 89 mM boric acid, 2 mM EDTA), 6% polyacrylamide gel. Electrophoresis was done at 250 V, 9 mA for 2 hours at 4° C. and the dried gel was exposed to film overnight. The reaction conditions for buffer, temperature, incubation time, cofactor addition and gel composition have all been optimized. Only slightly better complex resolution was obtained under the listed conditions compared to a 10 minute incubation at 37° C. prior to gel loading at room temperature and containing either cofactor S-adenosyl-L-methionine, product S-adenosyl-L-homocysteine, or the AdoMet analog sinefungin. Hepes reaction buffer at pH 7.4 produced sharper banding than Tris-HCl at pH 8.0. […] Subsequent assays used a limiting and constant enzyme concentration with varying DNA concentrations.
as §5

[9] = target: T2, DNA cytosine-5 methyltransferase …; test: EMSA; unit printed as mM (text indicates micromolar); at limit of resolution; settings: tags: none; purified from mouse erythroleukemia (MEL) cells
Experimental: as §4, §5

T1 sequence (P13864 whole entry): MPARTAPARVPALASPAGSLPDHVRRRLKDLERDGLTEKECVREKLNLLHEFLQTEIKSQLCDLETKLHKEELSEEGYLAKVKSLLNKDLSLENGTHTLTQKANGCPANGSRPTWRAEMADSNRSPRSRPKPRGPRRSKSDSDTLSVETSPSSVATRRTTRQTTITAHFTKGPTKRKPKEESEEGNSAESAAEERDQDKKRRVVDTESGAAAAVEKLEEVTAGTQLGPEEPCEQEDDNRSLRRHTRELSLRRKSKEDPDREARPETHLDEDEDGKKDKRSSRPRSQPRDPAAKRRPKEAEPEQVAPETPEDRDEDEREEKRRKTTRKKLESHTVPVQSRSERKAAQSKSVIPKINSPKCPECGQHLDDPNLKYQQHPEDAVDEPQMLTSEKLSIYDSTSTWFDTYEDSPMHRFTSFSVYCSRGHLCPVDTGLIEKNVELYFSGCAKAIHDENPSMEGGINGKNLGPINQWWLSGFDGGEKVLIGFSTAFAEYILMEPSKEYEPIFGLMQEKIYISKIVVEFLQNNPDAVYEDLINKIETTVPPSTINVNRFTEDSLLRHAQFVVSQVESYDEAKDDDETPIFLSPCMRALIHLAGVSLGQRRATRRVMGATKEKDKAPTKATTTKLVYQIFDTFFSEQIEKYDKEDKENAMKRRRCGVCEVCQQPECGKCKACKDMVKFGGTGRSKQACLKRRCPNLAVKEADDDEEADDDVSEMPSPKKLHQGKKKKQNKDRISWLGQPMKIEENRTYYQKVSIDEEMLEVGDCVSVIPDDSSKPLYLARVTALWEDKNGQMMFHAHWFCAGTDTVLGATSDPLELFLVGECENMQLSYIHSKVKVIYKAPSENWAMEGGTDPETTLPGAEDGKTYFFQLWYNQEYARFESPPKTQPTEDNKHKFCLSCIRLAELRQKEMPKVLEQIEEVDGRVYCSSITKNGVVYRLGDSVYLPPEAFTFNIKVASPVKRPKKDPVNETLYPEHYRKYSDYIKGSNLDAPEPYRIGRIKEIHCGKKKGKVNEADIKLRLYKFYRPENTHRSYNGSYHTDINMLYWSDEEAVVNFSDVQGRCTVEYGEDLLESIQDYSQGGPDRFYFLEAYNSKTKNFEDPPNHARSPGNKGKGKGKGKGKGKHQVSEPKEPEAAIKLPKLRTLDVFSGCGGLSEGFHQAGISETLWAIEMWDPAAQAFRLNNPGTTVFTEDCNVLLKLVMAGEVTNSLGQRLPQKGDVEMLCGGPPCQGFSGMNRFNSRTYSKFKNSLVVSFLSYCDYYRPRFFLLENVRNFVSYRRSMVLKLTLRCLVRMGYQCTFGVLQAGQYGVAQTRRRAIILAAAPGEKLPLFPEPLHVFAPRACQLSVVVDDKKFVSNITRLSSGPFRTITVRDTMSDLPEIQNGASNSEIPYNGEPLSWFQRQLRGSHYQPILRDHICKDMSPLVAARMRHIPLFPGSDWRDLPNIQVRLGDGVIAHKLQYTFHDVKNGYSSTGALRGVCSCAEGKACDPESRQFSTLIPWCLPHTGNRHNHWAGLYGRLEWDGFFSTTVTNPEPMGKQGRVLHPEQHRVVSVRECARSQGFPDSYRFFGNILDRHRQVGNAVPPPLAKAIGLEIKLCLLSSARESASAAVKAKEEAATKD
Chain of DNA cytosine-5 methyltransferase (DCMTase, Dnmt1) (Mus musculus) (P13864 whole entry): as above
T2 sequence (P13864 whole entry, one chain of several): as the sequence (P13864 whole entry) above

5′-CTGGATCCTTGCCCCGCCCCTTGAATTCCC-3′ (DNA, backbone not given here) [GC-box b]
enzyme activity with single-stranded substrate (DCMTase [1]): no detectable enzyme activity | Mode of Inhibition (DCMTase [2]): Noncompetitive with poly(dIdC:dIdC) | alpha factor, Kii/Kis (DCMTase [2]): 1.9 | Ki (DCMTase [2]; poly(dI.dC:dI.dC) varied, noncompetitive fit, 15 μM AdoMet, read-out: Kii): 6800 nM | Ki (DCMTase [2]; poly(dI.dC:dI.dC) varied, noncompetitive fit, 15 μM AdoMet, read-out: Kis): 3600 nM

5′-CTGGATCCTTGCCC^mCGCCCCTTGAATTCCC-3′ (DNA CTGGATCCTTGCCCCGCCCCTTGAATTCCC; DNA, [5mC] at 15, backbone not given here) [GC-box b^MET]
growth rate of MEL cells [3]: slows down the growth rate | Mode of Inhibition (DCMTase [2]): Uncompetitive with poly(dIdC:dIdC); also recorded: Competitive with Adomet | Ki (DCMTase [2]; AdoMet varied, constant 50 pM poly(dI.dC:dI.dC), competitive fit, read-out: Inhibition Constant, slope derived (Kis), equation 4): 25 nM | Ki (DCMTase [2]; Kii and Kis, read-out: the two inhibition constants in agreement): ~20 nM | lower affinity for free enzyme in the absence of poly(dI.dC:dI.dC) (DCMTase [2]; compared with Example 1 binding): 120 fold | Ki (DCMTase [2]; poly(dI.dC:dI.dC) varied, uncompetitive fit, 10 μM AdoMet, read-out: Inhibition Constant, intercept derived Kii, equation 6): 20 nM | Ki (DCMTase [2]; read-out: KI, dissociation constant from the DCMTase:poly(dI.dC:dI.dC) complex): 2.5 nM | lower inhibition constant (increased inhibition) versus GC-box b (DCMTase [2]; single 5-mC substitution): 200 fold

5′-GGGAATTCAAGGGGCGGGGCAAGGATCCAG-3′ (DNA, backbone not given here) [GC-box a]
enzyme activity with single-stranded substrate (DCMTase [1]): no detectable enzyme activity

Nc1ncnc2c1ncn2[C@@H]1O[C@H](CSCC[C@H](N)C(=O)O)[C@@H](O)[C@H]1O [AdoHcy, S-adenosyl homocysteine]
Ki (DCMTase [4]; varied AdoMet, fixed poly(dIdC:dIdC), competitive, read-out: Inhibition Constant Kis): 1400 nM | Ki (DCMTase [4]; varied poly(dI.dC:dI.dC), low AdoMet concentrations, read-out: Kii, noncompetitive model): 2500 nM | Ki (DCMTase [4]; varied poly(dI.dC:dI.dC), low AdoMet concentrations, read-out: Kii, uncompetitive model): 2000 nM | Ki (DCMTase [4]; varied poly(dI.dC:dI.dC), low AdoMet concentrations, read-out: Kis, noncompetitive model): 63000 nM | Type of Inhibition (DCMTase [4]; varied substrate AdoMet, fixed substrate IC): C | Type of Inhibition (DCMTase [4]; varied substrate IC, fixed substrate AdoMet): NC/UC

GC-box p^MET: SEQ ID NO:10 with a phosphorothioate backbone (DNA CTGGATCCTTGCCCCGCCCCTTGAATTCCC; listed as DNA, chemistry not fully specified)
occurrence of large multi-nucleate cells among regularly sized cells ([3]; five days of incubation, 10 micromolar): about one in fifty | growth rate of MEL cells [3]: slows down the growth rate

GGGAATTCATGGATCCTAAANNNNNNNNNNNNCGNNNNNNNNNNNNTTTCAAGCTTGTGATTCCC (double strand) [generation-5 selected pool]
binding signal (fold tighter than starting pool) [5]: 2

poly(dI.dC:dI.dC), average 6250 or 5000 bp
Ki ([6]; substrate inhibition, 6250 bp, apparent Km 5.5 +/- 0.9 pM, true Km 36 +/- 5 pM): 1 nM

poly(dI.dmC:dI.dmC), fully methylated
Ki ([6]; 5mC at all M.SssI sites, Kis, noncompetitive product inhibition vs AdoMet, Kii 30 +/- 12 pM): 0.0053 nM

B1: GC-box a/bMET (dsDNA)
DNA 1: GGGAATTCAAGGGGCGGGGCAAGGATCCAG
DNA 2: CTGGATCCTTGCCCCGCCCCTTGAATTCCC
modifications: 5mC at position 15 of strand b (hemi-methylated CpG)
Kd [7]: 360 nM

B2: CRE aMET/b (dsDNA)
DNA 1: GGGAATTCAAATGACGTCAAAAGGATCCAG
DNA 2: CTGGATCCTTTTGACGTCATTTGAATTCCC
modifications: 5mC at position 15 of strand a (hemi-methylated CpG)
Kd ([8]; label: 32P): 1000 nM

GGGAATTCAAGGGGCGGGGCAAGGATCCAG (ssDNA) [GC-box a]
Kd [8]: 1200 nM

B3: CRE a/b (dsDNA)
DNA 1: B2 DNA 1
DNA 2: B2 DNA 2
Kd ([8]; label: 32P): 1500 nM

GGGAATTCAAATGACGTCAAAAGGATCCAG (ssDNA) [CRE a]
Kd [9]: > 50000 nM

CTGGATCCTTTTGACGTCATTTGAATTCCC (ssDNA) [CRE b]
Kd [9]: > 50000 nM
